Measurements reported in patent US20250082611A1, “DOSING REGIMEN FOR AN NLRP3 INHIBITOR IN THE TREATMENT OF OSTEOARTHRITIS” (Novartis AG, priority 2021, published 2025).

Test system: IL-1β production in PMA-differentiated THP-1 cells
Experiment: IL-1β production in PMA-differentiated THP-1 cells stimulated with gramicidin (hTHP-1 assay, 2% fetal bovine serum)
Type: cell-based
Details: Homo sapiens, hTHP-1 assay containing 2% fetal bovine serum
Experimental: THP-1 cells were purchased from the American Type Culture Collection and sub-cultured according to instructions from the supplier. Cells were cultured in complete RPMI 1640 (containing 10% heat inactivated FBS, penicillin (100 units/ml) and streptomycin (100 μg/ml)), and maintained in log phase prior to experimental setup. Prior to the experiment, compounds were dissolved in dimethyl sulfoxide (DMSO) to generate a 30 mM stock. The compound stock was first pre-diluted in DMSO to 3, 0.34, 0.042 and 0.0083 mM intermediate concentrations and subsequently spotted using Echo550 liquid handler into an empty 384-well assay plate to achieve desired final concentration (e.g. 100, 33, 11, 3.7, 1.2, 0.41, 0.14, 0.046, 0.015, 0.0051, 0.0017 μM). DMSO was backfilled in the plate to achieve a final DMSO assay concentration of 0.37%. The plate was then sealed and stored at room temperature until required.
THP-1 cells were treated with PMA (Phorbol 12-myristate 13-acetate) (20 ng/ml) for 16-18 hours. On the day of the experiment the media was removed and adherent cells were detached with trypsin for 5 minutes. Cells were then harvested, washed with complete RPMI 1640, spun down, and resuspended in RPMI 1640 (containing 2% heat inactivated FBS, penicillin (100 units/ml) and streptomycin (100 μg/ml). The cells were plated in the 384-well assay plate containing the spotted compounds at a density of 50,000 cells/well (final assay volume 50 μl). Cells were incubated with compounds for 1 hour and then stimulated with gramicidin (5 μM) (Enzo) for 2 hours. Plates were then centrifuged at 340 g for 5 min. Cell free supernatant (40 μL) was collected using a 96-channel PlateMaster (Gilson) and the production of IL-1β was evaluated by HTRF (cisbio). The plates were incubated for 18 h at 4° C. and read using the preset HTRF program (donor emission at 620 nm, acceptor emission at 668 nm) of the SpectraMax i3x spectrophotometer (Molecular Devices, software SoftMax 6). A vehicle only control and a dose titration of CRID3 (100-0.0017 μM) were run concurrently with each experiment. […]

Compound: CC(C)(O)c1ncc([S@](N)(=O)=NC(=O)Nc2c3c(cc4c2CCC4)CCC3)s1 [Compound IA, (R)-N′-((1,2,3,5,6,7-hexahydro-s-indacen-4-yl)carbamoyl)-2-(2-hydroxypropan-2-yl) thiazole-5-sulfonimidamide]
- IC50: 0.008 to 0.04 µM
